From PubChem BioAssay AID2060484 (Molecular Pharmacology Branch, DTP, NCI, 2025)

System: SUM149PT spheroids with HUVEC/MSC, viability
Assay: Anticancer human tumor SUM149PT cell line growth inhibition [GQUAD];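 further: spheroids exposed to drugs for seven days before readout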;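 on viability, T/C: percent viability relative to DMSO vehicle control taken as 100%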
Settings: for IC50: curve of first compound; for viability, T/C: stronger effect = lower value
Outline: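 Multi-cell-type spheroids of tumor cells with HUVEC and mesenchymal stem cells, treated with drug combinations. Concentrations descend in half-log steps from near clinical Cmax, or from 10 microM where Cmax is unknown; viability read-out.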

[1] = second compound 0.0316 µM, first compound 0.0316 µM
[2] = second compound 0.0316 µM, first compound 0.316 µM
[3] = second compound 0.1 µM, first compound 0.0316 µM
[4] = second compound 0.1 µM, first compound 0.316 µM
[5] = second compound 0.316 µM, first compound 0.0316 µM
[6] = second compound 0.316 µM, first compound 0.316 µM
[7] = second compound 1 µM, first compound 0.0316 µM
[8] = second compound 1 µM, first compound 0.316 µM
[9] = second compound 3.16 µM, first compound 0.0316 µM
[10] = second compound 3.16 µM, first compound 0.316 µM
[11] = second compound 10 µM, first compound 0.0316 µM
[12] = second compound 10 µM, first compound 0.316 µM
[13] = second compound 0.0316 µM, first compound 0.000999 µM
[14] = second compound 0.0316 µM, first compound 0.00316 µM
[15] = second compound 0.0316 µM, first compound 0.00999 µM
[16] = second compound 0.0316 µM, first compound 0.0999 µM
[17] = second compound 0.1 µM, first compound 0.000999 µM
[18] = second compound 0.1 µM, first compound 0.00316 µM
[19] = second compound 0.1 µM, first compound 0.00999 µM
[20] = second compound 0.1 µM, first compound 0.0999 µM
[21] = second compound 0.316 µM, first compound 0.000999 µM
[22] = second compound 0.316 µM, first compound 0.00316 µM
[23] = second compound 0.316 µM, first compound 0.00999 µM
[24] = second compound 0.316 µM, first compound 0.0999 µM
[25] = second compound 1 µM, first compound 0.000999 µM
[26] = second compound 1 µM, first compound 0.00316 µM
[27] = second compound 1 µM, first compound 0.00999 µM
[28] = second compound 1 µM, first compound 0.0999 µM
[29] = second compound 3.16 µM, first compound 0.000999 µM
[30] = second compound 3.16 µM, first compound 0.00316 µM
[31] = second compound 3.16 µM, first compound 0.00999 µM
[32] = second compound 3.16 µM, first compound 0.0999 µM
[33] = second compound 10 µM, first compound 0.000999 µM
[34] = second compound 10 µM, first compound 0.00316 µM
[35] = second compound 10 µM, first compound 0.00999 µM
[36] = second compound 10 µM, first compound 0.0999 µM

C=CC(=O)N1CCN(c2nc(=O)n(-c3c(C)ccnc3C(C)C)c3nc(-c4c(O)cccc4F)c(F)cc23)C(C)C1 (stereo unspecified) + CN(C)c1ccc(Nc2c3ccc(NC(=O)CCN4CCCC4)cc3nc3cc(NC(=O)CCN4CCCC4)ccc23)cc1
IC50 (second compound 0.0316 µM): > 10000 nM
IC50 (second compound 0.1 µM): > 10000 nM
IC50 (second compound 0.316 µM): > 10000 nM
IC50 (second compound 1 µM): > 10000 nM
IC50 (second compound 3.16 µM): > 10000 nM
IC50 (second compound 10 µM): > 10000 nM
viability, T/C [1]: 106%
viability, T/C (second compound 0.0316 µM, first compound 0.1 µM): 101%
viability, T/C [2]: 105%
viability, T/C (second compound 0.0316 µM, first compound 1 µM): 110%
viability, T/C (second compound 0.0316 µM, first compound 3.16 µM): 122%
viability, T/C (second compound 0.0316 µM, first compound 10 µM): 101%
viability, T/C [3]: 99.7%
viability, T/C (second compound 0.1 µM, first compound 0.1 µM): 102%
viability, T/C [4]: 98.2%
viability, T/C (second compound 0.1 µM, first compound 1 µM): 113%
viability, T/C (second compound 0.1 µM, first compound 3.16 µM): 115%
viability, T/C (second compound 0.1 µM, first compound 10 µM): 108%
viability, T/C [5]: 96.1%
viability, T/C (second compound 0.316 µM, first compound 0.1 µM): 93.9%
viability, T/C [6]: 110%
viability, T/C (second compound 0.316 µM, first compound 1 µM): 114%
viability, T/C (second compound 0.316 µM, first compound 3.16 µM): 111%
viability, T/C (second compound 0.316 µM, first compound 10 µM): 101%
viability, T/C [7]: 96.5%
viability, T/C (second compound 1 µM, first compound 0.1 µM): 86.5%
viability, T/C [8]: 95.4%
viability, T/C (second compound 1 µM, first compound 1 µM): 103%
viability, T/C (second compound 1 µM, first compound 3.16 µM): 113%
viability, T/C (second compound 1 µM, first compound 10 µM): 96.7%
viability, T/C [9]: 88.3%
viability, T/C (second compound 3.16 µM, first compound 0.1 µM): 89.9%
viability, T/C [10]: 103%
viability, T/C (second compound 3.16 µM, first compound 1 µM): 104%
viability, T/C (second compound 3.16 µM, first compound 3.16 µM): 106%
viability, T/C (second compound 3.16 µM, first compound 10 µM): 85.4%
viability, T/C [11]: 86.8%
viability, T/C (second compound 10 µM, first compound 0.1 µM): 82.9%
viability, T/C [12]: 92.6%
viability, T/C (second compound 10 µM, first compound 1 µM): 90%
viability, T/C (second compound 10 µM, first compound 3.16 µM): 100%
viability, T/C (second compound 10 µM, first compound 10 µM): 69.2%

CC[C@@]1(O)C(=O)OCc2c1cc1n(c2=O)Cc2cc3c(CN(C)C)c(O)ccc3nc2-1 + CN(C)c1ccc(Nc2c3ccc(NC(=O)CCN4CCCC4)cc3nc3cc(NC(=O)CCN4CCCC4)ccc23)cc1
IC50 (second compound 0.0316 µM): > 316 nM
IC50 (second compound 0.1 µM): > 316 nM
IC50 (second compound 0.316 µM): > 316 nM
IC50 (second compound 1 µM): 206 nM
IC50 (second compound 3.16 µM): 84 nM
IC50 (second compound 10 µM): 98.1 nM
viability, T/C [13]: 110%
viability, T/C [14]: 87.6%
viability, T/C [15]: 109%
viability, T/C [1]: 82.2%
viability, T/C [16]: 55.9%
viability, T/C [2]: 57%
viability, T/C [17]: 102%
viability, T/C [18]: 102%
viability, T/C [19]: 103%
viability, T/C [3]: 88.4%
viability, T/C [20]: 56%
viability, T/C [4]: 57.2%
viability, T/C [21]: 95.6%
viability, T/C [22]: 92.1%
viability, T/C [23]: 90%
viability, T/C [5]: 83.6%
viability, T/C [24]: 51.6%
viability, T/C [6]: 52.9%
viability, T/C [25]: 87.8%
viability, T/C [26]: 88.2%
viability, T/C [27]: 80.2%
viability, T/C [7]: 78.3%
viability, T/C [28]: 54%
viability, T/C [8]: 47.6%
viability, T/C [29]: 94.7%
viability, T/C [30]: 84.4%
viability, T/C [31]: 102%
viability, T/C [9]: 69.7%
viability, T/C [32]: 47.9%
viability, T/C [10]: 45.1%
viability, T/C [33]: 92.5%
viability, T/C [34]: 90%
viability, T/C [35]: 86.4%
viability, T/C [11]: 74.2%
viability, T/C [36]: 48.7%
viability, T/C [12]: 44.9%

CCc1c2c(nc3ccc(O)cc13)-c1cc3c(c(=O)n1C2)COC(=O)[C@]3(O)CC + CN(C)c1ccc(Nc2c3ccc(NC(=O)CCN4CCCC4)cc3nc3cc(NC(=O)CCN4CCCC4)ccc23)cc1
IC50 (second compound 0.0316 µM): 11.9 nM
IC50 (second compound 0.1 µM): 14.8 nM
IC50 (second compound 0.316 µM): 6.28 nM
IC50 (second compound 1 µM): 6.73 nM
IC50 (second compound 3.16 µM): 5.8 nM
IC50 (second compound 10 µM): 6.81 nM
viability, T/C [13]: 80%
viability, T/C [14]: 44%
viability, T/C [15]: 54.6%
viability, T/C [1]: 45.9%
viability, T/C [16]: 38.9%
viability, T/C [2]: 20.7%
viability, T/C [17]: 70.2%
viability, T/C [18]: 45.6%
viability, T/C [19]: 52.8%
viability, T/C [3]: 48.1%
viability, T/C [20]: 41.6%
viability, T/C [4]: 23.5%
viability, T/C [21]: 64.1%
viability, T/C [22]: 45.7%
viability, T/C [23]: 45.3%
viability, T/C [5]: 47.5%
viability, T/C [24]: 37.7%
viability, T/C [6]: 26%
viability, T/C [25]: 63.8%
viability, T/C [26]: 42.2%
viability, T/C [27]: 47.2%
viability, T/C [7]: 48.8%
viability, T/C [28]: 35.5%
viability, T/C [8]: 23.5%
viability, T/C [29]: 64.1%
viability, T/C [30]: 42.1%
viability, T/C [31]: 47.2%
viability, T/C [9]: 46.1%
viability, T/C [32]: 35.6%
viability, T/C [10]: 23.5%
viability, T/C [33]: 67.2%
viability, T/C [34]: 39.2%
viability, T/C [35]: 49.1%
viability, T/C [11]: 46.8%
viability, T/C [36]: 37.2%
viability, T/C [12]: 22.4%
